What was measured:
HaCaT cells = test: Proliferation assay (HaCaT cells, ATP-lite bioluminescent readout of intracellular ATP); assay type: cell-based; details: Homo sapiens, 144 h, absolute IC50 of inhibition of proliferation, 10% FBS, 6 days incubation, mean of 3 experiments
Experimental: Human adult low calcium high temperature (HaCaT) cells are spontaneously transformed human keratinocytes that have the characteristics of basal epidermal keratinocytes (Boukamp et at. J Cell Biol 106:761-771, 1988) This line can be used as in vitro model for highly proliferative epidermis (Ockenfels et at., Arch Dermatol Res 287:301-309, 1995)
HaCaT cells exponentially growing were plated in clear bottom, white walled, 96-well plates at a density of 5000 cells/well in 100 µL Dulbecco's modified Eagle's medium (DMEM) containing 1% fetal bovine serum (FBS), and incubated overnight at 37 °C, 5% CO2. Next day, media in each well was replaced with 50 µL growth medium containing 10% FBS. 50 µL of compounds at two-fold the desired concentration in growth medium containing 2% dimethyl sulfoxide (DMSO) were added to the wells. Six wells were replaced with fresh 100 µL of medium containing 1% FBS and 1% DMSO and were used as a control of no proliferation. Six other wells were replaced with fresh 100 µL of medium containing 10% FBS and 1% DMSO and were used as a control of top proliferation. Each compound concentration was tested in triplicate and ranged from 100 µM to 0.4 µM in half-log serial dilutions. Plates were incubated at 37°C 5% CO2 for 6 consecutive days. […] Results were expressed as a % of inhibition of proliferation in relation to the top and bottom proliferation wells. […]

[1] = test system: premalignant and malignant human cutaneous keratinocytes; details: cytostasis was followed by apoptosis; cited from earlier work

Row | Structure (SMILES) | IC50 (HaCaT cells) | effect on premalignant and malignant human cutaneous keratinocytes [1]
1 | COc1cccc(-c2cc(F)c(Nc3ncccc3C(=O)O)c(F)c2)c1 [2-(3,5-difluoro-3'-methoxybiphenyl-4-ylamino)nicotinic acid] | 580 nM | 
2 | CC(O)=C(C#N)C(=O)Nc1ccc(C(F)(F)F)cc1 [Teriflunomide, 2-Butenamide, 2-cyano-3-hydroxy-N-[4-(trifluoromethyl)phenyl]-] |  | dose- and time-dependent cytostasis
3 | O=C(O)c1cc(C2CC2)ccc1Nc1cnc(-c2c(F)cccc2F)nc1 [5-cyclopropyl-2-(2-(2,6-difluorophenyl)pyrimidin-5-ylamino)benzoic acid] | 260 nM | 

Reference: patent publication EP2444088A1, “Amino derivatives for the treatment of proliferative skin disorders” (Almirall, S.A., priority 2010, dated 2012)
